Results taken from patent publication US11266662B2, “Ganaxolone for use in prophylaxis and treatment of postpartum depression” (Marinus Pharmaceuticals, Inc., priority 2018, dated 2022).
“And” between values parts separate entries of the source, which are not always exact repeats. Identical values can stand only once.

Tests used:
subjects = assay: All completed placebo-controlled clinical studies of ganaxolone: adverse events; assay type: in vivo, human
Protocol: As of Oct. 10, 2017, 1557 unique subjects have received ganaxolone ranging in duration from 1 day to more than 2 years using doses from 50 to 2000 mg/day in completed studies. Of these subjects, 1527 subjects received oral ganaxolone and 30 subjects received intravenous (IV ganaxolone).
In 20 completed Phase 1 studies, 319 healthy subjects received ganaxolone oral doses of 50 to 2,000 mg/day for periods of up to 2 weeks or IV bolus doses ranging from 10 to 30 mg over durations of 2 minutes to 1 hour or a bolus dose of 6 mg over 5 minutes followed with a continuous infusion of 20 mg per hour for 4 hours.
In the 20 completed Phase 2/3 clinical studies, 1238 unique subjects have received oral ganaxolone in studies of adult subjects with epilepsy, pediatric subjects with seizure disorders, pediatric subjects with FXS, adult subjects with PTSD, and adult subjects with migraine.

[1] = Phase 2A study (Magnolia) in women with postpartum depression: ganaxolone plasma concentrations / pharmacokinetics; details: for GNX Concentration: individual subjects, listed as GNX; for concentration at 12 h / concentration at 24 h / concentration at 48 h / concentration at 24 hr / concentration at 48 hr / concentration at 12 hr: female, human, plasma, intravenous, Mean average GNX Concentration
Protocol: Approximately 200 women with PPD 18 to 45 years of age are screened to randomize up to 100 subjects across up to 6 cohorts. Approximately 10-30 subjects are randomized into each cohort. Randomized subjects receive the investigational product (IP), ganaxolone or matching placebo in a 1:1 ratio. In Cohorts 1-5 the IP is administered intravenously over 60 hours. In Cohort 6 the dosing is initiated with a 6-hour intravenous (IV) infusion followed by oral dosing for 28 days plus 3-day taper.
Ganaxolone is infused at a rate of 4 mg/hr (16 ml/h of ganaxolone 0.25 mg/ml solution) for 48 hours and then, to minimize any risks for withdrawal or rebound of anxiety and depression symptoms, at a rate of 2 mg/hr for the next 12 hours. The infusion is stopped at 60 hours. Total of 9 subjects are dosed for this cohort.
Ganaxolone is infused at a rate of 8 mg/hr (16 ml/h of ganaxolone 0.5 mg/ml solution) for 48 hours and then at a rate of 4 mg/hr for the next 12 hours. This dose is approximately double the expected plasma exposure as compared to Cohort 1 at steady state (Cohort 2 expected plasma concentration ˜100-120 ng/mL). The infusion is stopped at 60 hours.
Twelve mg bolus of ganaxolone is initially given over 2 minutes followed by ganaxolone infusion at a rate of 12 mg/hr (24 ml/h of ganaxolone 0.5 mg/ml solution) for 48 hours. The rate is then reduced to 6 mg/hr for the next 12 hours, which is done to minimize any risks for withdrawal or rebound of anxiety and depression symptoms. The infusion is stopped at 60 hours.
In this cohort dosing is initiated with ganaxolone infusion at a rate of 20 mg/hr (40 ml/h of ganaxolone 0.5 mg/ml solution or matching placebo) for 6 hours followed by ganaxolone 900 mg (four 225 mg capsules per dose) or matching placebo capsules given orally at dinner time for 28 days followed by a 3-day taper (three, two, and one 225 mg capsule(s) per day, respectively).
This initial infusion is targeted to provide a fast onset of antidepressant activity by delivery of rapid plasma exposures to ganaxolone. Then, at dinner time of Day 1 the subjects take their first oral dose of ganaxolone 900 mg (four 225 mg capsules) or matching placebo (4 capsules). […] In previous studies, ganaxolone has been given up to a daily dose of 2000 mg, and at single doses of 1000 mg.
Six samples are collected for pharmacokinetic analysis in Cohorts 1-5 and 12 samples in Cohort 6. […] Seven samples are collected during the inpatient phase of Cohort 6 (including 6 samples on Day 1) followed by collection of 5 samples during the outpatient phase during the study visits for a total of 12 samples in Cohort 6.

For `CC(=O)[C@H]1CC[C@H]2[C@@H]3CC[C@H]4C[C@](C)(O)CC[C@]4(C)[C@H]3CC[C@]12C` [ganaxolone, 3α-hydroxy-3β-methyl-5α-pregnan-20-one], the Incidence of syncope (subjects; 2/993 subjects) was 0.2%, the “Discontinuations due to rash” value (subjects; 6/993) was 0.6% and the “Subjects with at least 1 treatment emergent adverse event (TEAE)” value (subjects; 613/993 subjects) was 61.7%. The “Subjects with elevated LFTs (>3×ULN AST and/or ALT)” value (subjects; Phase 1, 2, and 3 placebo-controlled studies) was 0.32%, the “Events of loss of consciousness” value (subjects; all placebo-controlled studies) was “no events of loss of consciousness related to ganaxolone” and the TEAE dizziness (subjects; human, in vivo) was 13.0%. The TEAE fatigue (subjects; human, in vivo) was 9.7%, the TEAE headache (subjects; human, in vivo) was 5.5% and the TEAE somnolence (subjects; human, in vivo) was 22.0%. The “Targeted ganaxolone plasma concentration at steady state (Css)” value ([1]; Cohort 1, infusion rate 4 mg/hr, estimated target) was 52 ng/mL, the “GNX Concentration” value ([1]; Cohort 1: IV 4 mg/hr for 48 h then 2 mg/hr for 12 h, time 12 hr) was 61.6 ng/mL and the “GNX Concentration” value ([1]; Cohort 1: IV 4 mg/hr for 48 h then 2 mg/hr for 12 h, time 24 hr) was 59 ng/mL. The “Expected plasma concentration at steady state” value ([1]; Cohort 2, 8 mg/hr) was 100 to 120 ng/mL, the “GNX Concentration” value ([1]; Cohort 2: IV 8 mg/hr for 48 h then 4 mg/hr for 12 h, time 12 hr) was 107 ng/mL (2×) and 70.8 ng/mL and 111 ng/mL and 150 ng/mL and 115 ng/mL and 63.3 ng/mL and 69.3 ng/mL and 116 ng/mL and 49.5 ng/mL and 146 ng/mL and 183 ng/mL and 140 ng/mL and 71.5 ng/mL and 77.6 ng/mL and the “GNX Concentration” value ([1]; Cohort 2: IV 8 mg/hr for 48 h then 4 mg/hr for 12 h, time 24 hr) was 125 ng/mL and 92 ng/mL and 140 ng/mL and 45.5 ng/mL and 75.7 ng/mL and 106 ng/mL and 96.5 ng/mL and 1590* ng/mL and 142 ng/mL and 80.6 ng/mL and 175 ng/mL and 174 ng/mL and 162 ng/mL and 89.3 ng/mL and 26100* ng/mL. The “GNX Concentration” value ([1]; Cohort 2: IV 8 mg/hr for 48 h then 4 mg/hr for 12 h, time 48 hr) was 120 ng/mL (2×) and 136 ng/mL and 102 ng/mL and 197 ng/mL and 92 ng/mL and 77.8 ng/mL and 73.9 ng/mL and 118 ng/mL and 73.1 ng/mL and 131 ng/mL and 298 ng/mL and 132 ng/mL and 93.6 ng/mL and 7390* ng/mL, the “GNX Concentration” value ([1]; Cohort 2: IV 8 mg/hr for 48 h then 4 mg/hr for 12 h, time 72 hr) was 27.1 ng/mL and 26.4 ng/mL and 30.1 ng/mL and 28.2 ng/mL and 11.9 ng/mL and 23.9 ng/mL and 23.1 ng/mL and 26.8 ng/mL and 25.6 ng/mL and 19.4 ng/mL and 46.2 ng/mL and 26.9 ng/mL and 21.5 ng/mL and 18.1 ng/mL and 27.5 ng/mL and the “Expected peak plasma concentrations during initial 2-minute bolus” value ([1]; Cohort 3, 12 mg bolus over 2 minutes) was “up to 300 ng/ml”. For the same molecule, the “GNX Concentration” value ([1]; Cohort 3: 12 mg bolus, IV 12 mg/hr for 48 h then 6 mg/hr for 12 h, time 12 hr) was 137 ng/mL and 100 ng/mL and 106 ng/mL and 118 ng/mL and 138 ng/mL and 230 ng/mL and 126 ng/mL and 204 ng/mL and 61.1 ng/mL, the “GNX Concentration” value ([1]; Cohort 3: 12 mg bolus, IV 12 mg/hr for 48 h then 6 mg/hr for 12 h, time 24 hr) was 164 ng/mL and 125 ng/mL and 148 ng/mL and 163 ng/mL and 165 ng/mL and 254 ng/mL and 144 ng/mL and 250 ng/mL and 56 ng/mL and 16 ng/mL and the “GNX Concentration” value ([1]; Cohort 3: 12 mg bolus, IV 12 mg/hr for 48 h then 6 mg/hr for 12 h, time 48 hr) was 207 ng/mL and 146 ng/mL and 212 ng/mL and 66.4 ng/mL and 211 ng/mL and 213 ng/mL and 4160* ng/mL and 209 ng/mL and 85 ng/mL. For the same molecule, the “GNX Concentration” value ([1]; Cohort 3: 12 mg bolus, IV 12 mg/hr for 48 h then 6 mg/hr for 12 h, time 72 hr) was 49.3 ng/mL and 26.1 ng/mL and 30 ng/mL and 46.2 ng/mL and 44.6 ng/mL and 42.8 ng/mL and 30.2 ng/mL and 31.7 ng/mL and 17.5 ng/mL and 15.2 ng/mL, the concentration at 12 h ([1]; 86 μg/kg/hr, calculated for dose 86 μg/kg/hr, time 12 hr) was 81.4 ng/mL and the concentration at 24 h ([1]; 86 μg/kg/hr, calculated for dose 86 μg/kg/hr, time 24 hr) was 91.2 ng/mL. It also gave a concentration at 48 h ([1]; 86 μg/kg/hr, calculated for dose 86 μg/kg/hr, time 48 hr) of 100 ng/mL, a concentration at 12 h ([1]; 150 μg/kg/hr, calculated for dose 150 μg/kg/hr, time 12 hr) of 142 ng/mL and a concentration at 24 hr ([1]; 150 μg/kg/hr, calculated for dose 150 μg/kg/hr, time 24 hr) of 159 ng/mL. For the same molecule, the concentration at 48 hr ([1]; 150 μg/kg/hr, calculated for dose 150 μg/kg/hr, time 48 hr) was 175 ng/mL, the concentration at 12 hr ([1]; 160 μg/kg/hr, calculated for dose 160 μg/kg/hr, time 12 hr) was 151 ng/mL and the concentration at 24 hr ([1]; 160 μg/kg/hr, calculated for dose 160 μg/kg/hr, time 24 hr) was 170 ng/mL. It also gave a concentration at 48 hr ([1]; 160 μg/kg/hr, calculated for dose 160 μg/kg/hr, time 48 hr) of 187 ng/mL, a concentration at 12 hr ([1]; 170 μg/kg/hr, calculated for dose 170 μg/kg/hr, time 12 hr) of 161 ng/mL and a concentration at 24 hr ([1]; 170 μg/kg/hr, calculated for dose 170 μg/kg/hr, time 24 hr) of 180 ng/mL. For the same molecule, the concentration at 48 hr ([1]; 170 μg/kg/hr, calculated for dose 170 μg/kg/hr, time 48 hr) was 199 ng/mL, the concentration at 12 h ([1]; 180 μg/kg/hr, calculated for dose 180 μg/kg/hr, time 12 hr) was 170 ng/mL and the concentration at 24 h ([1]; 180 μg/kg/hr, calculated for dose 180 μg/kg/hr, time 24 hr) was 191 ng/mL. It also gave a concentration at 48 h ([1]; 180 μg/kg/hr, calculated for dose 180 μg/kg/hr, time 48 hr) of 210 ng/mL, a concentration at 12 h ([1]; 190 μg/kg/hr, calculated for dose 190 μg/kg/hr, time 12 hr) of 180 ng/mL and a concentration at 24 h ([1]; 190 μg/kg/hr, calculated for dose 190 μg/kg/hr, time 24 hr) of 202 ng/mL. The concentration at 48 h ([1]; 190 μg/kg/hr, calculated for dose 190 μg/kg/hr, time 48 hr) was 222 ng/mL, the concentration at 12 h ([1]; 200 μg/kg/hr, calculated for dose 200 μg/kg/hr, time 12 hr) was 189 ng/mL and the concentration at 24 h ([1]; 200 μg/kg/hr, calculated for dose 200 μg/kg/hr, time 24 hr) was 212 ng/mL. The concentration at 48 h ([1]; 200 μg/kg/hr, calculated for dose 200 μg/kg/hr, time 48 hr) was 234 ng/mL, the concentration at 12 h ([1]; 210 μg/kg/hr, calculated for dose 210 μg/kg/hr, time 12 hr) was 199 ng/mL and the concentration at 24 h ([1]; 210 μg/kg/hr, calculated for dose 210 μg/kg/hr, time 24 hr) was 223 ng/mL.
